Experimental data from publication PMC6273431, “The Structure–Antimicrobial Activity Relationships of a Promising Class of the Compounds Containing the N-Arylpiperazine Scaffold” (Molecules, 2016).
Read-outs that look alike come from different tables or passages of the source.

What was measured:
[1] = system: methicillin-resistant Staphylococcus aureus 63718; assay: antibacterial MIC, microtitration broth method; format: cell-based; details: MRSA, 37 °C
Protocol: (§1) Prior to the testing, each strain was transferred into a nutrient agar (Oxoid Limited, Basingstoke, UK), which was enriched with 5% defibrinated bovine blood.
(§2) The MICs were determined by the microtitration broth method in the cation-adjusted Mueller-Hinton broth (Becton Dickinson, Oxford, UK) according to an international interdisciplinary Clinical Laboratory Standard Institute guidelines.
(§3) The checkerboard was inoculated by the bacterial inocula, which were prepared in a phosphate buffered saline solution with the pH = 7.2–7.3 to simulate physiological pH. The final concentration of each inoculum in the final volume of 100 μL in the wells was approximately 7.5 × 10^6 CFU/mL. Drug-free controls, sterility controls and the controls consisted of the broth with DMSO were included. The determination of the results was performed visually after 24 h of static incubation in the darkness at 37 °C in an aerobic atmosphere.
(§4) To ensure reproducibility, each antibacterial MIC assay was performed triplicate on separate occasions.

[2] = system: Enterococcus faecalis ATCC 29212; assay: antibacterial MIC, microtitration broth method; format: cell-based; details: 37 °C
Protocol: as §1, §2, §3, §4

[3] = system: Escherichia coli ATCC 25922; assay: antibacterial MIC, microtitration broth method; format: cell-based; details: 37 °C
Protocol: as §1, §2, §3, §4

[4] = system: Staphylococcus aureus ATCC 29213; assay: antibacterial MIC, microtitration broth method; format: cell-based; details: 37 °C
Protocol: as §1, §2, §3, §4

[5] = system: Candida albicans CCM 8261; assay: candidacidal MIC, microdilution method; format: cell-based; details: Candida albicans, CCM8261, 48 h, 37 °C
Protocol: (§5) In order to provide a look into the potential usefulness of the derivatives 5a–l as the candidates for a development of anti-yeast (candidacidal) agents, they were in vitro tested against Candida albicans CCM 8261 (CA 8261), C. krusei CCM 8271 (CK 8271) and C. parapsilosis CCM 8260 (CP 8260). The yeasts were obtained from the Czech Collection of Microorganisms (Masaryk University, Faculty of Science, Brno, Czech Republic). They were grown and kept on Sabouraud agar (Oxoid Limited, Basingstoke, UK).
(§6) For the screening, the microdilution method according to the Antimicrobial Susceptibility Testing Protocols was applied. The inoculum was prepared from the cultures grown on Sabouraud agar. With the sterile solution of NaCl, the inoculum was prepared to the 0.5 McFarland units using the Densi-La-Meter densitometer (LIAP, Riga, Latvia) and diluted a thousand‑fold with the Roswell Park Memorial Institute (RPMI) 1640 medium (Sigma-Aldrich, Darmstadt, Germany). Prepared suspension was used for an inoculation of microtitre plates. Final concentration in wells ranged from 5.0 × 10^2 CFU/mL to 2.5 × 10^3 CFU/mL. […] For the determination of the MICs, the stock solutions of all the tested compounds were diluted in the microtitre checkerboard to the final concentration varying from 128 μg/mL to 0.125 μg/mL. Drug-free control, sterility control and the control consisted of a medium and DMSO alone were included. Inoculated microtitre plates were incubated for 48 h in the darkness at 37 °C in an aerobic atmosphere. The results were estimated against static light.
(§7) The MIC was defined as the lowest concentration of the tested compound at which no visible growth was observed. To ensure reproducibility of the results, each candidacidal MIC assay was performed triplicate on separate occasions. It was important to note that all the MICs from the in vitro antimicrobial screening were expressed in μg/mL units and were available in Tables S3 and S4 (Supplementary Materials).

[6] = system: Candida parapsilosis CCM 8260; assay: candidacidal MIC, microdilution method; format: cell-based; details: Lodderomyces parapsilosis, CCM8260, 48 h, 37 °C
Protocol: as §5, §6, §7

Candida krusei CCM 8271 = assay: candidacidal MIC, microdilution method; format: cell-based; details: Pichia kudriavzevii, CCM8271, 48 h, 37 °C
Protocol: as §5, §6, §7

[7] = design: method as in PMID 16209439, PMID 16209439; details: potentiometric titration; cited from earlier work
M. marinum CAMP 5644 = assay: antimycobacterial MIC, broth dilution micromethod; format: cell-based; details: Mycobacterium marinum, CAMP5644, 504 h, 21 days at 28 °C
M. smegmatis ATCC 700084 = assay: antimycobacterial MIC, broth dilution micromethod; format: cell-based; details: Mycolicibacterium smegmatis, ATCC700084, 72 h, 3 days at 37 °C
[8] = design: method as in PMID 16209439, PMID 16209439, doi:10.2478/s11696-006-0007-y; details: octan-1-ol/phosphate buffer (pH = 7.4); cited from earlier work
[9] = system: Mycobacterium avium subsp. paratuberculosis CIT03; assay: antimycobacterial MIC, MB broth, alamarBlue; format: cell-based; details: 264 h, read-out: MIC MAP
Protocol: The Mycobacterium avium subsp. paratuberculosis CIT03 strain was grown in the Middlebrook (MB) broth, supplemented with the Oleic-Albumin-Dextrose-Catalase Supplement (OADC, Becton Dickinson, Oxford, UK) and the mycobactin J (2 μg/mL). The commercially available siderophore mycobactin J reduced the incubation period of M. avium subsp. paratuberculosis in a complex medium when compared to the medium containing the mycobactin P as a growth factor.
The identification of the isolate was performed using biochemical and molecular protocols. At a log phase growth, a culture sample (10 mL) was centrifuged at 15,000 rpm/20 min using a bench top centrifuge (Model CR 4-12, Jouan Inc., London, UK). Following removal of the supernatant, the pellet was washed in fresh Middlebrook 7H9GC broth and re-suspended in fresh supplemented MB broth (10 mL). The turbidity was adjusted to match the McFarland standard No. 1 containing approximately 3.0 × 10^8 Colony Forming Units (CFU) with the MB broth. Further 1:20 dilution of the culture was performed in the MB broth. The susceptibility of given mycobacterial species was investigated in a 96-well plate format. In those experiments, sterile deionised water (300 μL) was added to all outer-perimeter wells of the plates to minimize an evaporation of the medium in the test wells during the incubation process. Each evaluated compound (100 μL) was incubated with the mycobacterial species (100 μL). The dilutions of a particular compound were prepared in triplicate. For all inspected derivatives, final concentrations ranged from 1000 μg/mL to 60 μg/mL. All compounds were prepared in dimethyl sulfoxide (DMSO; Sigma-Aldrich, Irvine, UK) and subsequent dilutions were made in the supplemented MB broth. The plates were sealed with a parafilm and incubated at 37 °C for 11 days. Following the incubation, a 10% addition of a water‑soluble dye, the alamarBlue reagent (AbD Serotec, Kidlington, UK), was mixed into each well. Absorbance readings at 570 nm and 600 nm were taken, initially for background subtraction and after 24 h re-incubation. The subtraction is necessary for strongly coloured compounds, where the colour may interfere with the interpretation of any colour change. For non-interfering compounds, a blue colour in a well was interpreted as an absence of a growth and a pink colour was scored as a growth.
The minimum inhibitory concentration (MIC) was defined as the lowest concentration of the compound at which no visible bacterial growth was observed. In other words, the MIC was the lowest concentration that prevented a visual colour change from blue to pink. The MIC value has been routinely and widely used in bacterial assays and it has been a standard detection limit according to the Clinical and Laboratory Standards Institute. The clinically used antimycobacterial drugs INH and RIF were applied as the standards.

M. kansasii DSM 44162 = assay: antimycobacterial MIC, broth dilution micromethod; format: cell-based; details: Mycobacterium kansasii, DSM44162, 168 h, 7 days at 37 °C

| SMILES | MIC ([1]; 24 h) | MIC ([1]; Table S4, 24 h) | MIC ([2]; ATCC29212, 24 h) | MIC ([2]; ATCC29212, Table S4, 24 h) | MIC ([3]; ATCC25922, 24 h) | MIC ([3]; ATCC25922, Table S4, 24 h) | MIC ([4]; ATCC29213, 24 h) | MIC ([4]; ATCC29213, Table S4, 24 h) | MIC [5] | MIC ([5]; Table S4) | MIC [6] | MIC ([6]; Table S4) | MIC (Candida krusei CCM 8271) | MIC (Candida krusei CCM 8271; Table S4) | pKa [7] | MIC (M. marinum CAMP 5644) | MIC (M. marinum CAMP 5644; Table S3) | MIC (M. smegmatis ATCC 700084) | MIC (M. smegmatis ATCC 700084; Table S3) | log Pexp [8] | other results |
| --- | --- | --- | --- | --- | --- | --- | --- | --- | --- | --- | --- | --- | --- | --- | --- | --- | --- | --- | --- | --- | --- |
| CCOc1ccc(NC(=O)OCC(O)CN2CCN(c3ccc(F)cc3)CC2)cc1 (stereo not drawn) [Compound 5l] | > 564 µM | > 256 µg/mL | > 564 µM | > 256 µg/mL | > 564 µM | > 256 µg/mL | > 564 µM | > 256 µg/mL | > 282 µM | > 128 µg/mL | > 282 µM | > 128 µg/mL | > 282 µM | > 128 µg/mL | 7.18 | 282 µM | 128 µg/mL | 564 µM | 256 µg/mL | 3.28 | MIC ([9]; 37 °C, 11 days): 2200 µM; MIC [9]: 1000 µg/mL; MIC (M. kansasii DSM 44162): 564 µM; MIC (M. kansasii DSM 44162; Table S3): 256 µg/mL |
| CCOc1ccc(NC(=O)OCC(O)CN2CCN(c3cccc(C(F)(F)F)c3)CC2)cc1 (stereo not drawn) [Compound 5f] | > 508 µM | > 256 µg/mL | > 508 µM | > 256 µg/mL | > 508 µM | > 256 µg/mL | > 508 µM | > 256 µg/mL | > 254 µM | > 128 µg/mL | > 254 µM | > 128 µg/mL | > 254 µM | > 128 µg/mL | 5.69 | 254 µM | 128 µg/mL | 508 µM | 256 µg/mL | 3.71 | MIC ([9]; 37 °C, 11 days): 992 µM; MIC [9]: 500 µg/mL; MIC (M. kansasii DSM 44162): 508 µM; MIC (M. kansasii DSM 44162; Table S3): 256 µg/mL |
| COc1ccc(NC(=O)OCC(O)CN2CCN(c3cccc(C(F)(F)F)c3)CC2)cc1 (stereo not drawn) [Compound 5e, 1-{2-hydroxy-3-(4-methoxyphenylcarbamoyl)oxy)propyl}-4-(3-trifluoromethylphenyl)piperazin-1-ium chloride] | > 523 µM | > 256 µg/mL | > 523 µM | > 256 µg/mL | > 523 µM | > 256 µg/mL | > 523 µM | > 256 µg/mL | > 261 µM | > 128 µg/mL | > 261 µM | > 128 µg/mL | > 261 µM | > 128 µg/mL | 5.66 | 65.3 µM | 32 µg/mL | 523 µM | 256 µg/mL | 3.60 | MIC ([9]; 37 °C, 11 days): 1020 µM; MIC [9]: 500 µg/mL; MIC (M. kansasii DSM 44162): 65.3 µM; MIC (M. kansasii DSM 44162; Table S3): 32 µg/mL |
| COc1ccccc1NC(=O)OCC(O)CN1CCN(c2ccc(F)cc2)CC1 (stereo not drawn) [Compound 5g] | > 582 µM | > 256 µg/mL | > 582 µM | > 256 µg/mL | > 582 µM | > 256 µg/mL | > 582 µM | > 256 µg/mL | > 291 µM | > 128 µg/mL | > 291 µM | > 128 µg/mL | > 291 µM | > 128 µg/mL | 6.73 | 145 µM | 64 µg/mL | 582 µM | 256 µg/mL | 3.61 | MIC ([9]; 37 °C, 11 days): 2270 µM; MIC [9]: 1000 µg/mL; MIC (M. kansasii DSM 44162): 145 µM; MIC (M. kansasii DSM 44162; Table S3): 64 µg/mL |
